Measured values taken from publication PMC6704710, “Preclinical evaluation of 3D185, a novel potent inhibitor of FGFR1/2/3 and CSF-1R, in FGFR-dependent and macrophage-dominant cancer models” (Journal of Experimental & Clinical Cancer Research : CR, 2019).

How the values were obtained:
Assay type in all cases: biochemical
[1] = target: T1, EGFR(T790M)(h) (Homo sapiens, UniProt P00533, T790M); assay: Eurofins kinase panel; conditions: read-out: Inhibition rate (%)
T1 construct: purchased Eurofins (KinaseProfiler)
T1 sequence (P00533 25-1210 T790M): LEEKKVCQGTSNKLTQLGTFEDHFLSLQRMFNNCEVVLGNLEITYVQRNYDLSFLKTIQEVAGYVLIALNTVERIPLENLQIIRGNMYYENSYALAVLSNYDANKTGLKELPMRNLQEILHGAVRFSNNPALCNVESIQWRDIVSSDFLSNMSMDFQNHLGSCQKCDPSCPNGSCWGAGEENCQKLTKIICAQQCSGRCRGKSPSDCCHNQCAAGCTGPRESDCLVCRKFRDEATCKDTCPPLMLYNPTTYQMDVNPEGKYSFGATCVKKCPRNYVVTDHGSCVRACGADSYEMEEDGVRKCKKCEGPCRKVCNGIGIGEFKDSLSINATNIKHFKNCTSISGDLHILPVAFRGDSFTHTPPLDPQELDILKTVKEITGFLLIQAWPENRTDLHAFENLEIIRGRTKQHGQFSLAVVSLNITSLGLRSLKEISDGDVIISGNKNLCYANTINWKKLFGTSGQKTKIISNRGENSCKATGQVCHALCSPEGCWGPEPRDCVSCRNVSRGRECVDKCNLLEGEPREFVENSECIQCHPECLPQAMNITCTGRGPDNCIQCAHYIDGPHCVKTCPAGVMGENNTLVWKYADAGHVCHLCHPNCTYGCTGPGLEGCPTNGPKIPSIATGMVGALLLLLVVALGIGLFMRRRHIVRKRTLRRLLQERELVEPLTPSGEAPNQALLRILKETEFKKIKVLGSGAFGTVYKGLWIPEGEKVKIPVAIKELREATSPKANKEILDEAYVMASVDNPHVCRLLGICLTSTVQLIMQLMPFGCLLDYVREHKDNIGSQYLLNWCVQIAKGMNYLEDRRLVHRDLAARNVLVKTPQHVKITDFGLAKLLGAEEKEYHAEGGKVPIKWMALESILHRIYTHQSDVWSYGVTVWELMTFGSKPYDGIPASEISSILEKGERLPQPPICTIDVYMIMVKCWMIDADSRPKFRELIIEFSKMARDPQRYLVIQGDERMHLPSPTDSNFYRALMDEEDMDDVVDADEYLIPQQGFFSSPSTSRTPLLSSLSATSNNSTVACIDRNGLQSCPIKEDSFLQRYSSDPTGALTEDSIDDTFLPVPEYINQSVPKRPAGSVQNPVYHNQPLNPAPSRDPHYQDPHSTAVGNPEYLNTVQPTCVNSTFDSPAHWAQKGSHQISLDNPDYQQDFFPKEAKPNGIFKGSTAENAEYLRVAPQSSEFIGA

[2] = target: T2, MSK2(h) (Homo sapiens, UniProt O75676); assay: Eurofins kinase panel; conditions: read-out: Inhibition rate (%)
T2 construct: purchased Eurofins (KinaseProfiler)
T2 sequence (O75676 whole entry): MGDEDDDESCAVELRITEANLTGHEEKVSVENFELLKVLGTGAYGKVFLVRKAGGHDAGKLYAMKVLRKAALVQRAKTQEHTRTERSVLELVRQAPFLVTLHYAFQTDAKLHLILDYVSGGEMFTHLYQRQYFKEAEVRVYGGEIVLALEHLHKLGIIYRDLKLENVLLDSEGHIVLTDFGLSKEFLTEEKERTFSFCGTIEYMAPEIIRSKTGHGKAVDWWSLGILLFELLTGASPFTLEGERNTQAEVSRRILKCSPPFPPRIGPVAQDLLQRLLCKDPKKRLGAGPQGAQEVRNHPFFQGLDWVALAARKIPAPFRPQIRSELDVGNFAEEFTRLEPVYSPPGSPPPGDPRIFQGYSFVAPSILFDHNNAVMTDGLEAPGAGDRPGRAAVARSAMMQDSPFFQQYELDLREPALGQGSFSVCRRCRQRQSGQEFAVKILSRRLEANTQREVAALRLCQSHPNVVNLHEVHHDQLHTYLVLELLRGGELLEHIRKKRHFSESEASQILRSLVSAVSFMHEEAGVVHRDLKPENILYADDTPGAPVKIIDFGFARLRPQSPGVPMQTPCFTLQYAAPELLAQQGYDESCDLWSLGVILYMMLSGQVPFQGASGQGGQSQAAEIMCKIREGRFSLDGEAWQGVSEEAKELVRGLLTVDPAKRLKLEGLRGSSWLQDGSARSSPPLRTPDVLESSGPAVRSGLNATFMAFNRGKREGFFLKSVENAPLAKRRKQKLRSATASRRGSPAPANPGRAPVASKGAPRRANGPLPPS

[3] = target: T3, PKA(h) (Homo sapiens, UniProt P17612); assay: Eurofins kinase panel; conditions: read-out: Inhibition rate (%)
T3 construct: purchased Eurofins (KinaseProfiler)

[4] = target: T4, PKG1β(h) (Homo sapiens, UniProt Q13976); assay: Eurofins kinase panel; conditions: read-out: Inhibition rate (%)
T4 construct: purchased Eurofins (KinaseProfiler)
T4 sequence (Q13976 1-686 isoform Q13976-2): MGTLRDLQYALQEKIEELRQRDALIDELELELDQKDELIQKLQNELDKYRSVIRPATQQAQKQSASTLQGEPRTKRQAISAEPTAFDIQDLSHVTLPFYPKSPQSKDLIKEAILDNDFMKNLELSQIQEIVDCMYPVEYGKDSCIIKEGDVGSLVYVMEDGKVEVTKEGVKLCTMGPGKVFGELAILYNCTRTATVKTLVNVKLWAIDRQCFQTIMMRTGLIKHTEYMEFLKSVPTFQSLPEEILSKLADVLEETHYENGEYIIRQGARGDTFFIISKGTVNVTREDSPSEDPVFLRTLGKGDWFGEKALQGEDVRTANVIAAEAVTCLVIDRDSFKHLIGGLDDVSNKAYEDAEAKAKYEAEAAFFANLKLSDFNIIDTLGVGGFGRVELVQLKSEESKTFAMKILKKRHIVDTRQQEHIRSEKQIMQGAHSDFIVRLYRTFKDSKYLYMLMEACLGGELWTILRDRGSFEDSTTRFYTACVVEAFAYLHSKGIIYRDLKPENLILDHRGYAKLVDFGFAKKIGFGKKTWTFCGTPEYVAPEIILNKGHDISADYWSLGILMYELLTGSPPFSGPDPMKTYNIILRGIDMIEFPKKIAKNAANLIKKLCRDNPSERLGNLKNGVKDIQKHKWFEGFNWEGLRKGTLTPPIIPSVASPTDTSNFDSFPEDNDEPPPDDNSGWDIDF

[5] = target: T5, B-Raf(V599E)(h) (Homo sapiens, UniProt P15056, V600E); assay: Eurofins kinase panel; conditions: read-out: Inhibition rate (%)
T5 construct: purchased Eurofins (KinaseProfiler)
T5 sequence (P15056 417-766 V600E limits assumed): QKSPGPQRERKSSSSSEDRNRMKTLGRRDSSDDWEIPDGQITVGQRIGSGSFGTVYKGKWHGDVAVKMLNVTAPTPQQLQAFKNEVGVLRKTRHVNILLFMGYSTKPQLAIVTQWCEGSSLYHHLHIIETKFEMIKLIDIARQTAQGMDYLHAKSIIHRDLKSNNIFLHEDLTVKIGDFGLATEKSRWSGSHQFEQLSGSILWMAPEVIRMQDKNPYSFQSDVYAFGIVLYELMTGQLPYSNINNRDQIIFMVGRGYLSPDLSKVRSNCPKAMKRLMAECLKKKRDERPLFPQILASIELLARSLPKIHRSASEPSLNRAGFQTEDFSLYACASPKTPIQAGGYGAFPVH

[6] = target: T6, CDK9/cyclin T1(h) (Homo sapiens, UniProt P50750); assay: Eurofins kinase panel; conditions: read-out: Inhibition rate (%)
T6 construct: purchased Eurofins (KinaseProfiler)
T6 sequence (P50750 whole entry): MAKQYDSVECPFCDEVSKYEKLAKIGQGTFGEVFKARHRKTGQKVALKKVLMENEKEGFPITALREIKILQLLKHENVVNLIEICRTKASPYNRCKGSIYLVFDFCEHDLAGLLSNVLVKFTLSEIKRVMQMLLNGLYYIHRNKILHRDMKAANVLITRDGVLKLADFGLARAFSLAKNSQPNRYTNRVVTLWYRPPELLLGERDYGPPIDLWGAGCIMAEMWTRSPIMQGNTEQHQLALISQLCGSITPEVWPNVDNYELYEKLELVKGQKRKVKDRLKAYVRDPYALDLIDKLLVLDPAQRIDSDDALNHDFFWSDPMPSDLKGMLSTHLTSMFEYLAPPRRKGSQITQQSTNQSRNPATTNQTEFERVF
T6 sequence (O60563 whole entry partner): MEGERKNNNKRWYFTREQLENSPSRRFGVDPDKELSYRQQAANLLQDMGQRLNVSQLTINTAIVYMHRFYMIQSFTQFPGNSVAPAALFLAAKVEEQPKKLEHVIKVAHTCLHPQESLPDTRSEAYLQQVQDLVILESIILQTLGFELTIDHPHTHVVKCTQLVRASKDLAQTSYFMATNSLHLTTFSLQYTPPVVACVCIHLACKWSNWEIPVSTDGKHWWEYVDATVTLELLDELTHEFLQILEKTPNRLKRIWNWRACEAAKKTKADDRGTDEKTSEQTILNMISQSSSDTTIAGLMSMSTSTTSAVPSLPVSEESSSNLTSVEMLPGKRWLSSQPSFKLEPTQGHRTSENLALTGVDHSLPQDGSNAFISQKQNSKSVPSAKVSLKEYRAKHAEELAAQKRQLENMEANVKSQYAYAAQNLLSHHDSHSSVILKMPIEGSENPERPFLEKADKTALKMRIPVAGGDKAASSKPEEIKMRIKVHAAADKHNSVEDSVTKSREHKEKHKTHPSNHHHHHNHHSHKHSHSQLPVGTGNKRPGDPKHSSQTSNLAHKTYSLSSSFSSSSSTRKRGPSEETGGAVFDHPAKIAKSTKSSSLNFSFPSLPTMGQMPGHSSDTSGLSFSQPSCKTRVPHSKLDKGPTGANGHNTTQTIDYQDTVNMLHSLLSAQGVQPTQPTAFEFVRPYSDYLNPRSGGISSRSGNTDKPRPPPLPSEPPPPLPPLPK

[7] = target: T7, GSK3α(h) (Homo sapiens, UniProt P49840); assay: Eurofins kinase panel; conditions: read-out: Inhibition rate (%)
T7 construct: purchased Eurofins (KinaseProfiler)
T7 sequence (P49840 whole entry): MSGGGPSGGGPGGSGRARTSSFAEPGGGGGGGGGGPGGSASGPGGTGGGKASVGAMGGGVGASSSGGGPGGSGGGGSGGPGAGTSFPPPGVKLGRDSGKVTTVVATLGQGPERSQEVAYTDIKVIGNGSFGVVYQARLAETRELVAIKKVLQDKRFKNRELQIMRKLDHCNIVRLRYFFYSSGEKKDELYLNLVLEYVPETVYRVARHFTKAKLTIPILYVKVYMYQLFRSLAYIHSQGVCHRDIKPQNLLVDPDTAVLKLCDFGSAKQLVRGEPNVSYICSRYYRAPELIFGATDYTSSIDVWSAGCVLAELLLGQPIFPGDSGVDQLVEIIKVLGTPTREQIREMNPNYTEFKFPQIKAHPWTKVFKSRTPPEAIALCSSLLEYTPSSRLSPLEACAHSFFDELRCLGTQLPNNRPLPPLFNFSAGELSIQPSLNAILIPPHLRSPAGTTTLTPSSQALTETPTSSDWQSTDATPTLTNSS

[8] = target: T8, TAO1(h) (Homo sapiens, UniProt Q7L7X3); assay: Eurofins kinase panel; conditions: read-out: Inhibition rate (%)
T8 construct: purchased Eurofins (KinaseProfiler)
T8 sequence (Q7L7X3 1-1001): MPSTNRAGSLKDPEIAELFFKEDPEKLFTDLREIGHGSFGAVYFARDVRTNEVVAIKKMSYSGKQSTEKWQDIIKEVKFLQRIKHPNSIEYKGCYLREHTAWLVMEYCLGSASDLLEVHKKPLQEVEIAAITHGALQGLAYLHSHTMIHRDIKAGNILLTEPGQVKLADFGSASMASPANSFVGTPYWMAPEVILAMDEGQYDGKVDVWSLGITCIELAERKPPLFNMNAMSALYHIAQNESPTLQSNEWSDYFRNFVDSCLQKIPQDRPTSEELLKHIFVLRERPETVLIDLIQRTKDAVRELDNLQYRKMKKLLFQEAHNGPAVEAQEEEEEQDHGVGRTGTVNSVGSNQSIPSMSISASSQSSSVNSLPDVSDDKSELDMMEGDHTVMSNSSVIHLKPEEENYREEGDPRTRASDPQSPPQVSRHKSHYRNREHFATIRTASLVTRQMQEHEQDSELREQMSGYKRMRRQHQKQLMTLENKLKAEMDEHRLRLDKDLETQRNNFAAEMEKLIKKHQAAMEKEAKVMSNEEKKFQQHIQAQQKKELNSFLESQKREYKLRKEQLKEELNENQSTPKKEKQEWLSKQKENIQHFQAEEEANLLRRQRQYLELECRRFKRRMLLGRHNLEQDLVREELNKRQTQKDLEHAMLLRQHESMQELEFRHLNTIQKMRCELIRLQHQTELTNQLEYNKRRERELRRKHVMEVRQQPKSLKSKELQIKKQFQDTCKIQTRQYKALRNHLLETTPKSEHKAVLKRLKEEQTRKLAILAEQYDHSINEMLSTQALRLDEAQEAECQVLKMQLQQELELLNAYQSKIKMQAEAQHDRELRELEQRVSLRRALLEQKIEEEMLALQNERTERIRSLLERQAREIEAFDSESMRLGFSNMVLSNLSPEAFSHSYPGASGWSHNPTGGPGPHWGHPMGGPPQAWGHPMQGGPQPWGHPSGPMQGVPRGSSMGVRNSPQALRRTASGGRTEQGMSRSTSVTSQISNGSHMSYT

[9] = test system: 372 human recombinant kinases; assay: Eurofins kinase panel, overall selectivity
Protocol: Active FGFR1–4, VEGFR1, KDR, VEGFR3, PDGFRα and PDGFRβ proteins were purchased from Eurofins (Fremont, United States), and kinase activity was assessed using ELISA, as previously reported. The broader kinase selectivity profile of 3D185 (0.01, 0.1, and 1 μM) was determined by Eurofins by screening the compound against 372 human recombinant kinases. Increasing concentrations of ATP were diluted for the kinase reaction in the ATP competition assay. CSF-1R kinase activity was analyzed using the Z’-LYTE™ Kinase Assay Kit (Thermo Fisher, United States). The assay formats are described in the SelectScreen Kinase Profiling Service Zlyte protocol. IC50 values were calculated by dose-response curve fitting using Prism (Graph Pad).

Molecule `COc1cc(OC)c(Cl)c(-c2ccc3c(NC(=O)c4ccc(N5CCNC(C)(C)C5)cc4)n[nH]c3n2)c1Cl` [3D185] has an inhibition at 0.01 µM ([1]; 10 nM) of -15%, an inhibition at 0.1 µM ([1]; 100 nM) of -8% and an inhibition at 1 µM ([1]; 1000 nM) of 29%. For the same molecule, the inhibition at 0.01 µM ([2]; 10 nM) was 10%, the inhibition at 0.1 µM ([2]; 100 nM) was 25% and the inhibition at 1 µM ([2]; 1000 nM) was 49%. The inhibition at 0.01 µM ([3]; 10 nM) was 5%, the inhibition at 0.1 µM ([3]; 100 nM) was -8% and the inhibition at 1 µM ([3]; 1000 nM) was 5%. The inhibition at 0.01 µM ([4]; 10 nM) was 12%, the inhibition at 0.1 µM ([4]; 100 nM) was 1% and the inhibition at 1 µM ([4]; 1000 nM) was 4%. For the same molecule, the inhibition at 0.01 µM ([5]; 10 nM) was -1%, the inhibition at 0.1 µM ([5]; 100 nM) was -6% and the inhibition at 1 µM ([5]; 1000 nM) was 7%. It also gave an inhibition at 0.01 µM ([6]; 10 nM) of -12%, an inhibition at 0.1 µM ([6]; 100 nM) of 0% and an inhibition at 1 µM ([6]; 1000 nM) of 4%. The inhibition at 0.01 µM ([7]; 10 nM) was 10%, the inhibition at 0.1 µM ([7]; 100 nM) was 4% and the inhibition at 1 µM ([7]; 1000 nM) was -5%. It also gave an inhibition at 0.01 µM ([8]; 10 nM) of -2%, an inhibition at 0.1 µM ([8]; 100 nM) of 6% and an inhibition at 1 µM ([8]; 1000 nM) of 21%. The “selectivity for FGFR1 over other kinases” value ([9]; 17 kinases) was greater than 20 fold and the “selectivity for FGFR1 over other kinases” value ([9]; 349 kinases) was “greater than 200 fold”.
